Measured values as given in the NIST ThermoML archive (doi:10.1016/j.jct.2017.06.001).

Experiment: xn = mol fraction of the nth substance listed
Details: 100 kPa, Liquid; for speed of sound: Frequency=5 MHz, Pulse-echo method; for mass density: Vibrating tube method

OCCCCCO [1,5-pentanediol] + O
Details	mass density [kg/m3]	speed of sound [m/s]
293.15 K, x1 = 0.005	997.92	–
293.15 K, x1 = 0.0101	997.99	–
293.15 K, x1 = 0.0196	998.58	–
293.15 K, x1 = 0.0251	999.15	–
293.15 K, x1 = 0.0304	999.8	–
293.15 K, x1 = 0.05	1001.74	–
293.15 K, x1 = 0.0769	1003.5	–
293.15 K, x1 = 0.1002	1004.72	–
293.15 K, x1 = 0.1438	1005.61	–
293.15 K, x1 = 0.1548	–	1691.8
293.15 K, x1 = 0.1602	–	1692.6
293.15 K, x1 = 0.1649	–	1693.2
293.15 K, x1 = 0.1671	–	1693.5
293.15 K, x1 = 0.1718	–	1694
293.15 K, x1 = 0.1738	–	1694.1
293.15 K, x1 = 0.1776	–	1694.5
293.15 K, x1 = 0.1807	–	1694.7
293.15 K, x1 = 0.1845	1005.62	–
293.15 K, x1 = 0.1846	–	1694.9
293.15 K, x1 = 0.1875	–	1695.1
293.15 K, x1 = 0.19	–	1695.2
293.15 K, x1 = 0.1941	–	1695.4
293.15 K, x1 = 0.1964	–	1695.5
293.15 K, x1 = 0.2006	–	1695.5
293.15 K, x1 = 0.2029	–	1695.6
293.15 K, x1 = 0.2051	–	1695.6
293.15 K, x1 = 0.2087	–	1695.7
293.15 K, x1 = 0.2114	–	1695.7
293.15 K, x1 = 0.2217	–	1695.6
293.15 K, x1 = 0.2315	–	1695.4
293.15 K, x1 = 0.2384	–	1695.2
293.15 K, x1 = 0.246	–	1695
293.15 K, x1 = 0.2503	1004.77	–
293.15 K, x1 = 0.2552	–	1694.6
293.15 K, x1 = 0.2648	–	1694.1
293.15 K, x1 = 0.2739	–	1693.7
293.15 K, x1 = 0.2857	–	1693
293.15 K, x1 = 0.2983	–	1692.1
293.15 K, x1 = 0.3	1003.78	–
293.15 K, x1 = 0.3133	–	1691.1
293.15 K, x1 = 0.3287	–	1689.9
293.15 K, x1 = 0.3343	1003.14	–
293.15 K, x1 = 0.3552	–	1687.7
293.15 K, x1 = 0.3729	–	1686.1
293.15 K, x1 = 0.4002	–	1683.5
293.15 K, x1 = 0.4171	1001.32	–
293.15 K, x1 = 0.4241	–	1681
293.15 K, x1 = 0.4527	–	1677.7
293.15 K, x1 = 0.454	1000.44	–
293.15 K, x1 = 0.478	–	1674.7
293.15 K, x1 = 0.5003	999.3	–
293.15 K, x1 = 0.5024	–	1671.6
293.15 K, x1 = 0.5266	–	1668.4
293.15 K, x1 = 0.5362	998.5	–
293.15 K, x1 = 0.5491	–	1665.3
293.15 K, x1 = 0.5701	–	1662.4
293.15 K, x1 = 0.5912	–	1659.4
293.15 K, x1 = 0.6123	–	1656.4
293.15 K, x1 = 0.6177	996.9	–
293.15 K, x1 = 0.631	–	1653.7
293.15 K, x1 = 0.6478	996.3	–
293.15 K, x1 = 0.656	–	1650.2
293.15 K, x1 = 0.6746	–	1647.5
293.15 K, x1 = 0.6953	–	1644.6
293.15 K, x1 = 0.7025	995.2	–
293.15 K, x1 = 0.7147	–	1641.9
293.15 K, x1 = 0.7344	–	1639.1
293.15 K, x1 = 0.7504	994.4	–
293.15 K, x1 = 0.7546	–	1636.4
293.15 K, x1 = 0.7797	–	1633
293.15 K, x1 = 0.7927	993.6	–
293.15 K, x1 = 0.8014	–	1630.2
293.15 K, x1 = 0.8265	–	1627
293.15 K, x1 = 0.8497	–	1624.1
293.15 K, x1 = 0.8605	992.3	–
293.15 K, x1 = 0.8696	–	1621.6
293.15 K, x1 = 0.9004	991.5	–
293.15 K, x1 = 0.9029	–	1617.5
293.15 K, x1 = 0.9198	–	1615.4
293.15 K, x1 = 0.9259	–	1614.7
293.15 K, x1 = 0.9367	–	1613.3
293.15 K, x1 = 0.9484	–	1611.8
293.15 K, x1 = 0.9496	990.4	–
293.15 K, x1 = 0.9601	–	1610.3
293.15 K, x1 = 0.97	–	1609.1
293.15 K, x1 = 0.9804	–	1607.7
293.15 K, x1 = 0.9884	–	1606.6
293.15 K, x1 = 0.9943	–	1605.8
293.15 K, x1 = 1	989.3	1605
298.15 K, x1 = 0.0002	–	1497.3
298.15 K, x1 = 0.0006	–	1498.9
298.15 K, x1 = 0.0012	–	1501.2
298.15 K, x1 = 0.0018	–	1503.4
298.15 K, x1 = 0.0026	–	1506.3
298.15 K, x1 = 0.004	–	1511.1
298.15 K, x1 = 0.0054	–	1515.9
298.15 K, x1 = 0.0067	–	1520.1
298.15 K, x1 = 0.0083	–	1525.4
298.15 K, x1 = 0.0097	–	1529.9
298.15 K, x1 = 0.0113	–	1534.7
298.15 K, x1 = 0.0123	–	1537.8
298.15 K, x1 = 0.0138	–	1542.2
298.15 K, x1 = 0.0153	–	1546.5
298.15 K, x1 = 0.0168	–	1550.8
298.15 K, x1 = 0.0184	–	1555.2
298.15 K, x1 = 0.0195	–	1558
298.15 K, x1 = 0.0205	–	1560.8
298.15 K, x1 = 0.0221	–	1564.7
298.15 K, x1 = 0.0243	–	1570.1
298.15 K, x1 = 0.0264	–	1575.3
298.15 K, x1 = 0.0287	–	1580.3
298.15 K, x1 = 0.0308	–	1584.9
298.15 K, x1 = 0.0326	–	1588.7
298.15 K, x1 = 0.0347	–	1593
298.15 K, x1 = 0.0362	–	1596.1
298.15 K, x1 = 0.0378	–	1599.1
298.15 K, x1 = 0.0396	–	1602.6
298.15 K, x1 = 0.0414	–	1605.7
298.15 K, x1 = 0.0432	–	1608.9
298.15 K, x1 = 0.045	–	1612
298.15 K, x1 = 0.0465	–	1614.4
298.15 K, x1 = 0.0484	–	1617.3
298.15 K, x1 = 0.0503	–	1620.2
298.15 K, x1 = 0.0523	–	1623.2
298.15 K, x1 = 0.0539	–	1625.4
298.15 K, x1 = 0.0554	–	1627.5
298.15 K, x1 = 0.057	–	1629.7
298.15 K, x1 = 0.0588	–	1631.9
298.15 K, x1 = 0.0607	–	1634.3
298.15 K, x1 = 0.0624	–	1636.4
298.15 K, x1 = 0.0647	–	1639
298.15 K, x1 = 0.0672	–	1641.8
298.15 K, x1 = 0.0698	–	1644.5
298.15 K, x1 = 0.0724	–	1647.1
298.15 K, x1 = 0.0743	–	1648.9
298.15 K, x1 = 0.0774	–	1651.7
298.15 K, x1 = 0.0814	–	1655.1
298.15 K, x1 = 0.0847	–	1657.7
298.15 K, x1 = 0.0877	–	1659.9
298.15 K, x1 = 0.0907	–	1661.9
298.15 K, x1 = 0.0941	–	1664.1
298.15 K, x1 = 0.0968	–	1665.7
298.15 K, x1 = 0.0975	–	1666.1
298.15 K, x1 = 0.1007	–	1667.9
298.15 K, x1 = 0.1013	–	1668.2
298.15 K, x1 = 0.1045	–	1669.8
298.15 K, x1 = 0.1057	–	1670.4
298.15 K, x1 = 0.108	–	1671.4
298.15 K, x1 = 0.1105	–	1672.6
298.15 K, x1 = 0.1112	–	1672.8
298.15 K, x1 = 0.1142	–	1674
298.15 K, x1 = 0.1158	–	1674.7
298.15 K, x1 = 0.1173	–	1675.2
298.15 K, x1 = 0.1201	–	1676.2
298.15 K, x1 = 0.1217	–	1676.7
298.15 K, x1 = 0.1233	–	1677.2
298.15 K, x1 = 0.1262	–	1678.1
